Test results as given in patent US20250100998A1, “PARP7 INHIBITORS” (Gilead Sciences, Inc., priority 2023, published 2025).

system: STAT1 (phosphorylated at Tyr701) in NCI-H1373 cells; test: Phospho-STAT1 (Tyr701) LANCE Ultra TR-FRET detection assay; assay type: cell-based; conditions: Homo sapiens, NCI-H1373, 48 h, induction of pSTAT1 in NCI-H1373 cells, 48 hours incubation; normalized to 10 uM positive control and DMSO; 4-parameter fit; read-out: NH1373 pSTAT1 EC50
Method: Phospho-STAT1 (Tyr701 LANCE Ultra TR-FRET Detection Assay
LANCE Ultra phospho-STAT1 (Tyr701) kits are designed for the detection of phosphorylated STAT1 in cell lysates using a simple, homogeneous LANCE Ultra sandwich assay (Cat. #TRF4028M). This assay is intended for assessing compound induction of endogenous levels of cellular STAT1 (phosphorylated at Tyr701) in NCI-H1373 cells. The NCI-H1373 cells are cultured in RPMI 1640 media containing 10% heat inactivated FBS, GlutaMAX, 1% Penicillin-Streptomycin. An Echo acoustic liquid handler is used to transfer 60 nanoliters of compound dilutions using the Echo Qualified, 384-well polypropylene microplate clear flat bottom source plates into a Greiner (#781080) cell culture microplate. NCI-H1373 cells are seeded into these compound-spotted culture plates at 30,000 cells/well in a 60 uL volume in growth media. The plates are incubated in a 5% CO2 humidified incubator at 37° C. for 48 hours. […] Briefly, […] of supplemented lysis buffer is added to each well and allowed to shake for 1 hour at 400 rpm. Next, 5 ul of remixed antibody solutions (vol/vol) prepared in detection buffer are added to each well and allowed to incubate at room temperature overnight. After spinning the plate down at 300 rpm for 1 min, the plate is read on an EnVision plate reader set up for Eu3+ Cryptate and fluorescence emission is measured at two different wavelengths (665 nm and 620 nm). The HTRF ratio is then calculated ([…]) for each well to determine the amount of pSTAT1 in the cell lysate, and the data is then normalized to 10 uM (S)-5-((1-(3-oxo-3-(4-(5-(trifluoromethyl)pyrimidin-2-yl)piperazin-1-yl)propoxy)propan-2-yl)amino)-4-(trifluoromethyl)pyridazin-3(2H)-one positive and DMSO negative controls. The values were then plotted as a function of compound concentration and a 4-parameter fit was applied to derive the EC50 values.

| SMILES | EC50 [nM] |
| --- | --- |
| O=c1[nH]ncc(O[C@H]2CCC[C@@H](Cn3ccc4cc(-c5ncc(C(F)F)cn5)c(F)c(F)c4c3=O)C2)c1C(F)(F)F [Example 54, 6-(5-(difluoromethyl)pyrimidin-2-yl)-7,8-difluoro-2-(((1R,3S)-3-((6-oxo-5-(trifluoromethyl)-1,6-dihydropyridazin-4-yl)oxy)cyclohexyl)methyl)isoquinolin-1(2H)-one] | 2.38 |
| O=c1[nH]ncc(N[C@H]2CCC[C@@H](Cn3ccc4cc(-c5ncc(OCC(F)F)cn5)c(F)cc4c3=O)C2)c1C(F)(F)F [Example 14, 6-(5-(2,2-difluoroethoxy)pyrimidin-2-yl)-7-fluoro-2-(((1R,3S)-3-((6-oxo-5-(trifluoromethyl)-1,6-dihydropyridazin-4-yl)amino)cyclohexyl)methyl)isoquinolin-1(2H)-one] | 44.2 |
| O=c1[nH]ncc(N[C@H]2C[C@@H](Cn3ccc4cc(-c5ncc(C(F)(F)F)cn5)c(F)cc4c3=O)CC(F)(F)C2)c1C(F)(F)F (single isomer, unassigned) [Example 67] | 100 |
| CC(F)(F)c1cnc(-c2cc3ccn(C[C@@H]4CCC[C@H](Nc5cn[nH]c(=O)c5C(F)(F)F)C4)c(=O)c3cc2F)nc1 [Example 4, 6-(5-(1,1-difluoroethyl)pyrimidin-2-yl)-7-fluoro-2-(((1R,3S)-3-((6-oxo-5-(trifluoromethyl)-1,6-dihydropyridazin-4-yl)amino)cyclohexyl)methyl)isoquinolin-1(2H)-one] | 2.26 |
| CC(F)(F)c1cnc(-c2cc3ccn(C[C@@H]4CCC[C@H](Nc5cn[nH]c(=O)c5C(F)(F)F)C4)c(=O)c3c(F)c2F)nc1 [Example 20, 6-(5-(1,1-difluoroethyl)pyrimidin-2-yl)-7,8-difluoro-2-(((1R,3S)-3-((6-oxo-5-(trifluoromethyl)-1,6-dihydropyridazin-4-yl)amino)cyclohexyl)methyl)isoquinolin-1(2H)-one] | 1.61 |
| [2H]C([2H])([2H])Oc1cnc(-c2cc3ncn(C[C@@H]4CCC[C@H](Nc5cn[nH]c(=O)c5C(F)(F)F)C4)c(=O)c3cc2F)nc1 [Example 26, 6-fluoro-7-(5-(methoxy-d3)pyrimidin-2-yl)-3-(((1R,3S)-3-((6-oxo-5-(trifluoromethyl)-1,6-dihydropyridazin-4-yl)amino)cyclohexyl)methyl)quinazolin-4(3H)-one] | 5.63 |
| O=c1[nH]ncc(N[C@H]2CCC[C@@H](Cn3cc(Cl)c4cc(-c5ncc(C(F)F)cn5)c(F)cc4c3=O)C2)c1C(F)(F)F [Example 60, 4-chloro-6-(5-(difluoromethyl)pyrimidin-2-yl)-7-fluoro-2-(((1R,3S)-3-((6-oxo-5-(trifluoromethyl)-1,6-dihydropyridazin-4-yl)amino)cyclohexyl)methyl)isoquinolin-1(2H)-one] | 6.23 |
| COc1cnc(-c2cc3c(cc2F)C(=O)N(C[C@@H]2CCC[C@H](Nc4cn[nH]c(=O)c4C(F)(F)F)C2)CC3)nc1 [Example 70, 7-fluoro-6-(5-methoxypyrimidin-2-yl)-2-(((1R,3S)-3-((6-oxo-5-(trifluoromethyl)-1,6-dihydropyridazin-4-yl)amino)cyclohexyl)methyl)-3,4-dihydroisoquinolin-1(2H)-one] | 11.1 |
| O=C1c2cc(F)c(-c3ncc(C(F)F)cn3)cc2CCN1C[C@@H]1CCC[C@H](Nc2cn[nH]c(=O)c2C(F)(F)F)C1 [Example 72, 6-(5-(difluoromethyl)pyrimidin-2-yl)-7-fluoro-2-(((1R,3S)-3-((6-oxo-5-(trifluoromethyl)-1,6-dihydropyridazin-4-yl)amino)cyclohexyl)methyl)-3,4-dihydroisoquinolin-1(2H)-one] | 3.74 |
| O=c1[nH]ncc(N[C@H]2CCC[C@@H](Cn3ccc4cc(-c5nc6ccc(F)cn6n5)c(F)c(F)c4c3=O)C2)c1C(F)(F)F [Example 17, 7,8-difluoro-6-(6-fluoro-[1,2,4]triazolo[1,5-a]pyridin-2-yl)-2-(((1R,3S)-3-((6-oxo-5-(trifluoromethyl)-1,6-dihydropyridazin-4-yl)amino)cyclohexyl)methyl)isoquinolin-1(2H)-one] | 1.16 |
| O=c1[nH]ncc(N[C@H]2CCC[C@@H](Cn3ccc4cc(-c5nc6n(n5)COCCO6)c(F)cc4c3=O)C2)c1C(F)(F)F [Example 8, 6-(7,8-dihydro-5H-[1,2,4]triazolo[5,1-b][1,5,3]dioxazepin-2-yl)-7-fluoro-2-(((1R,3S)-3-((6-oxo-5-(trifluoromethyl)-1,6-dihydropyridazin-4-yl)amino)cyclohexyl)methyl)isoquinolin-1(2H)-one] | 5.86 |
| Cc1nc(-c2cc3ccn(C[C@@H]4CCC[C@H](Nc5cn[nH]c(=O)c5C(F)(F)F)C4)c(=O)c3cc2F)ncc1C(F)(F)F [Example 6, 7-fluoro-6-(4-methyl-5-(trifluoromethyl)pyrimidin-2-yl)-2-(((1R,3S)-3-((6-oxo-5-(trifluoromethyl)-1,6-dihydropyridazin-4-yl)amino)cyclohexyl)methyl)isoquinolin-1(2H)-one] | 5.13 |
| CC(F)(F)c1cnc(-c2cc3c(F)cn(C[C@@H]4CCC[C@H](Nc5cn[nH]c(=O)c5C(F)(F)F)C4)c(=O)c3c(F)c2F)nc1 [Example 43] | 2.6 |
| O=c1[nH]ncc(N[C@@H]2C[C@H](Cn3ccc4cc(-c5ncc(C(F)(F)F)cn5)c(F)cc4c3=O)CC(F)(F)C2)c1C(F)(F)F (single isomer, unassigned) [Example 66] | 29.2 |
| [2H]C([2H])([2H])Oc1cnc(-c2cc3c(F)cn(C[C@@H]4CCC[C@H](Oc5cn[nH]c(=O)c5C(F)(F)F)C4)c(=O)c3c(F)c2F)nc1 [Example 51, 4,7,8-trifluoro-6-(5-(methoxy-d3)pyrimidin-2-yl)-2-(((1R,3S)-3-((6-oxo-5-(trifluoromethyl)-1,6-dihydropyridazin-4-yl)oxy)cyclohexyl)methyl)isoquinolin-1(2H)-one] | 1.22 |
| O=c1[nH]ncc(N[C@H]2CCC[C@@H](Cn3ccc4cc(-c5ncc6c(n5)NCCO6)c(F)cc4c3=O)C2)c1C(F)(F)F [Example 9, 6-(7,8-dihydro-6H-pyrimido[5,4-b][1,4]oxazin-2-yl)-7-fluoro-2-(((1R,3S)-3-((6-oxo-5-(trifluoromethyl)-1,6-dihydropyridazin-4-yl)amino)cyclohexyl)methyl)isoquinolin-1(2H)-one] | 6.39 |
| O=c1[nH]ncc(N[C@H]2CCC[C@@H](Cn3cc(F)c4cc(-c5ncc(OC(F)(F)F)cn5)c(F)cc4c3=O)C2)c1C(F)(F)F [Example 23, 4,7-difluoro-2-(((1R,3S)-3-((6-oxo-5-(trifluoromethyl)-1,6-dihydropyridazin-4-yl)amino)cyclohexyl)methyl)-6-(5-(trifluoromethoxy)pyrimidin-2-yl)isoquinolin-1(2H)-one] | 9.13 |
| [2H]C([2H])([2H])Oc1cnc(-c2cc3c(F)cn(C[C@@H]4CCC[C@H](Nc5cn[nH]c(=O)c5C(F)(F)F)C4)c(=O)c3cc2F)nc1 [Example 45, 4,7-difluoro-2-[[(1R,3S)-3-[[6-oxo-5-(trifluoromethyl)-1H-pyridazin-4-yl]amino]cyclohexyl]methyl]-6-[5-(trideuteriomethoxy)pyrimidin-2-yl]isoquinolin-1-one] | 10.5 |
| O=c1[nH]ncc(N[C@H]2CCC[C@@H](Cn3cnc4cc(-c5ncc(OC(F)F)cn5)c(F)cc4c3=O)C2)c1C(F)(F)F [Example 25, 7-(5-(difluoromethoxy)pyrimidin-2-yl)-6-fluoro-3-(((1R,3S)-3-((6-oxo-5-(trifluoromethyl)-1,6-dihydropyridazin-4-yl)amino)cyclohexyl)methyl)quinazolin-4(3H)-one] | 3.78 |
| O=c1[nH]ncc(N[C@H]2CCC[C@@H](Cn3cc(F)c4cc(-c5ncc(OCCO)cn5)c(F)c(F)c4c3=O)C2)c1C(F)(F)F [Example 36, 4,7,8-trifluoro-6-(5-(2-hydroxyethoxy)pyrimidin-2-yl)-2-(((1R,3S)-3-((6-oxo-5-(trifluoromethyl)-1,6-dihydropyridazin-4-yl)amino)cyclohexyl)methyl)isoquinolin-1(2H)-one] | 4.21 |
| CS(=O)(=O)c1cnc(-c2cc3c(F)cn(C[C@@H]4CCC[C@H](Nc5cn[nH]c(=O)c5C(F)(F)F)C4)c(=O)c3cc2F)nc1 [Example 40, 4,7-difluoro-6-(5-methylsulfonylpyrimidin-2-yl)-2-[[(1R,3S)-3-[[6-oxo-5-(trifluoromethyl)-1H-pyridazin-4-yl]amino]cyclohexyl]methyl]isoquinolin-1-one] | 16.3 |
| O=c1[nH]ncc(N[C@H]2CCC[C@@H](Cn3ccc4cc(-c5ccc(C(F)F)cn5)c(F)c(F)c4c3=O)C2)c1C(F)(F)F [Example 19, 6-(5-(difluoromethyl)pyridin-2-yl)-7,8-difluoro-2-(((1R,3S)-3-((6-oxo-5-(trifluoromethyl)-1,6-dihydropyridazin-4-yl)amino)cyclohexyl)methyl)isoquinolin-1(2H)-one] | 4.78 |
